Experimental data as given in patent US7071178B2, “Use of vitamin D-derivatives in the treatment of osteoporosis and related bone disorders, as well as novel vitamin D3-derivatives” (Leo Pharmaceutical Products, Ltd., priority 2000, dated 2006).

Test system: OVX rats
Assay: OVX rat model on osteoporosis: boneweight
Type: in vivo
Design: key to Anabolic effect on boneweight, Tibia, vs 1,25D3 / Anabolic effect on boneweight, Tibial Meta., vs 1,25D3 / Anabolic effect on boneweight, L4, vs 1,25D3 / Anabolic effect on boneweight, Femur, vs 1,25D3: <: less effect than the reference dose of 1,25D3 (0.25 ug/kg); <=: less or the same effect as the reference dose of 1,25D3 (0.25 ug/kg); =: same effect as the reference dose of 1,25D3 (0.25 ug/kg); =>: same or better effect as the reference dose of 1,25D3 (0.25 ug/kg); >: better effect than the reference dose of 1,25D3 (0.25 ug/kg)
Conditions: for Anabolic effect on boneweight, Femur, vs 1,25D3 / Anabolic effect on boneweight, Femur, vs Ovx contr / Anabolic effect on boneweight, L4, vs 1,25D3 / Anabolic effect on boneweight, L4, vs Ovx contr / Anabolic effect on boneweight, Tibia, vs 1,25D3 / Anabolic effect on boneweight, Tibia, vs Ovx contr / Anabolic effect on boneweight, Tibial Meta., vs 1,25D3 / Anabolic effect on boneweight, Tibial Meta., vs Ovx contr: oral 28 days
Source text: FIG. 1 is a graphic illustration of the effect on the weight of the lumbal vertebrae, L4, in rats according to the OVX rat model described herein, and wherein the animal groups received treatment according to the scheme below. A statistical analysis is shown below the graphic illustration. Differences between groups were investigated by the Kruskal-Wallis test, including a multiple comparison procedure: ns represents non-significant, nt represents not tested, and * represents p<0.05. Differences were considered significant at a p<0.05. Results are presented in the bar diagram as means+SD.
The animals were divided into 6 groups: • Group 1: Intact control, dosed Propylene glycol 0.1 ml/kg (Vehicle) • Group 2: OVX rats control, dosed Propylene glycol 0.1 ml/kg (Vehicle) • Group 3: OVX rats, dosed 1α,25(OH)2D3, […], dosed Compound 145, […]
Pharmacological Methods—OVX Rat Model on Osteoporosis
To study bone anabolic properties and the effects of the vitamin D analogues of the present invention in preventing or treating demineralisation of the skeleton in vivo, a 4 weeks OVX rat model was used:
An ovariectomized rat model (OVX model), orally dosed for 28 days is useful for screening of vitamin D analogues. In this model ovariectomy produces alterations in the cancellous network identical to those seen in the human skeleton during ageing and the menopause. Besides this the model and the following analyses can be performed under very standardised conditions. 1α,25(OH)2D3 is used as a reference compound.
Female Sprague Dawley rats weighing approximately 130 g (40–45 days old) were purchased from MB, Ejby, Denmark. The animals were fed a commercial diet and allowed free access to food and drinking water. The animals were split into groups receiving differential treatment.
The animals were anaesthetised and ovariectomized through a dorsal incision.
Treatment of OVX animals was started 2 weeks after ovariectomy.
The animals were dosed orally for 28 days. The oral dosage was by gavage 0.1 ml/100 g bodyweight. The bodyweight of each animal was recorded every day prior to oral dosing. On day 7, 14, 21 and 28 the animals were housed separately for 24 hours in metabolic cages for collection of urine. Urine was frozen at −20° C. for later calcium measurement.
Left and right femur, left and right tibia, lumbal vertebrae 3 and 4 (L3 and L4) were removed and cleaned for all soft- and connecting tissue. Left femur, left and right tibia and L4 were dried in an oven at 50–60° C. for at least 24 hours and immediately hereafter weighed. The bones were burned in an oven at 800° C. for 4 hours, dissolved in 1N HCl, and analysed for calcium content in a Hitachi 911 autoanalyser. Right femur and L3 were kept in 0.9% NaCl and frozen at −20° C. for later biomechanical testing performed by Jesper Skovhus Thomsen and Lis Mosekilde at Aarhus University, measuring various biomechanical parameters.
Effect of Compound 145 compared to the reference dose of 1,25(OH)2D3 (1,25D3) (0.25 μg/kg) and compared to the OVX control group (shown in %) are shown in Tables 1 to 4.

With `C=C1C(=CC=C2CCCC3(C)C2CCC3C(C)CSc2ccc(C(C)(C)O)cc2)CC(O)CC1O` [Compound 145, 1(S),3(R)-Dihydroxy-20(R)-(4-((1-hydroxy-1-methyl)ethyl)phenylthiomethyl)-9,10-seco-pregna-5(Z),7(E),10(19)-triene] the “Anabolic effect on boneweight, Femur, vs 1,25D3” value (1 μg/kg, MTR/16) was “<=”, the “Anabolic effect on boneweight, Femur, vs Ovx contr” value (1 μg/kg, MTR/16) was 6% and the “Anabolic effect on boneweight, L4, vs 1,25D3” value (1 μg/kg, MTR/16) was “<=”. For the same compound, the “Anabolic effect on boneweight, L4, vs Ovx contr” value (1 μg/kg, MTR/16) was 9%, the “Anabolic effect on boneweight, Tibia, vs 1,25D3” value (1 μg/kg, MTR/16) was “<=” and the “Anabolic effect on boneweight, Tibia, vs Ovx contr” value (1 μg/kg, MTR/16) was 6%. For the same compound, the “Anabolic effect on boneweight, Tibial Meta., vs 1,25D3” value (1 μg/kg, MTR/16) was “<”, the “Anabolic effect on boneweight, Tibial Meta., vs Ovx contr” value (1 μg/kg, MTR/16) was 6% and the “Anabolic effect on boneweight, Femur, vs 1,25D3” value (10 μg/kg, MTR/16) was “>”. The “Anabolic effect on boneweight, Femur, vs Ovx contr” value (10 μg/kg, MTR/16) was 10%, the “Anabolic effect on boneweight, L4, vs 1,25D3” value (10 μg/kg, MTR/16) was “>” and the “Anabolic effect on boneweight, L4, vs Ovx contr” value (10 μg/kg, MTR/16) was 13%. The “Anabolic effect on boneweight, Tibia, vs 1,25D3” value (10 μg/kg, MTR/16) was “>”, the “Anabolic effect on boneweight, Tibia, vs Ovx contr” value (10 μg/kg, MTR/16) was 8% and the “Anabolic effect on boneweight, Tibial Meta., vs 1,25D3” value (10 μg/kg, MTR/16) was “>”. The “Anabolic effect on boneweight, Tibial Meta., vs Ovx contr” value (10 μg/kg, MTR/16) was 14%, the “Anabolic effect on boneweight, Femur, vs 1,25D3” value (10 μg/kg, MTR/23) was “>=” and the “Anabolic effect on boneweight, Femur, vs Ovx contr” value (10 μg/kg, MTR/23) was 5%. The “Anabolic effect on boneweight, L4, vs 1,25D3” value (10 μg/kg, MTR/23) was “>=”, the “Anabolic effect on boneweight, L4, vs Ovx contr” value (10 μg/kg, MTR/23) was 4% and the “Anabolic effect on boneweight, Tibia, vs 1,25D3” value (10 μg/kg, MTR/23) was “>=”. For the same compound, the “Anabolic effect on boneweight, Tibia, vs Ovx contr” value (10 μg/kg, MTR/23) was 5%, the “Anabolic effect on boneweight, Tibial Meta., vs 1,25D3” value (10 μg/kg, MTR/23) was “<” and the “Anabolic effect on boneweight, Tibial Meta., vs Ovx contr” value (10 μg/kg, MTR/23) was 8%. For the same compound, the “Anabolic effect on boneweight, Femur, vs 1,25D3” value (25 μg/kg, MTR/27) was “>”, the “Anabolic effect on boneweight, Femur, vs Ovx contr” value (25 μg/kg, MTR/27) was 4% and the “Anabolic effect on boneweight, L4, vs 1,25D3” value (25 μg/kg, MTR/27) was “>”. The “Anabolic effect on boneweight, L4, vs Ovx contr” value (25 μg/kg, MTR/27) was 9%, the “Anabolic effect on boneweight, Tibia, vs 1,25D3” value (25 μg/kg, MTR/27) was “>” and the “Anabolic effect on boneweight, Tibia, vs Ovx contr” value (25 μg/kg, MTR/27) was 3%. For the same compound, the “Anabolic effect on boneweight, Tibial Meta., vs 1,25D3” value (25 μg/kg, MTR/27) was “>”, the “Anabolic effect on boneweight, Tibial Meta., vs Ovx contr” value (25 μg/kg, MTR/27) was −2% and the “Anabolic effect on boneweight, Femur, vs 1,25D3” value (50 μg/kg, MTR/23) was “>>”. The “Anabolic effect on boneweight, Femur, vs Ovx contr” value (50 μg/kg, MTR/23) was 14%, the “Anabolic effect on boneweight, L4, vs 1,25D3” value (50 μg/kg, MTR/23) was “>>” and the “Anabolic effect on boneweight, L4, vs Ovx contr” value (50 μg/kg, MTR/23) was 15%. For the same compound, the “Anabolic effect on boneweight, Tibia, vs 1,25D3” value (50 μg/kg, MTR/23) was “>>”, the “Anabolic effect on boneweight, Tibia, vs Ovx contr” value (50 μg/kg, MTR/23) was 13% and the “Anabolic effect on boneweight, Tibial Meta., vs 1,25D3” value (50 μg/kg, MTR/23) was “=”. The “Anabolic effect on boneweight, Tibial Meta., vs Ovx contr” value (50 μg/kg, MTR/23) was 22%, the “Anabolic effect on boneweight, Femur, vs 1,25D3” value (50 μg/kg, MTR/27) was “>” and the “Anabolic effect on boneweight, Femur, vs Ovx contr” value (50 μg/kg, MTR/27) was 6%. For the same compound, the “Anabolic effect on boneweight, L4, vs 1,25D3” value (50 μg/kg, MTR/27) was “>”, the “Anabolic effect on boneweight, L4, vs Ovx contr” value (50 μg/kg, MTR/27) was 11% and the “Anabolic effect on boneweight, Tibia, vs 1,25D3” value (50 μg/kg, MTR/27) was “>”. For the same compound, the “Anabolic effect on boneweight, Tibia, vs Ovx contr” value (50 μg/kg, MTR/27) was 4%, the “Anabolic effect on boneweight, Tibial Meta., vs 1,25D3” value (50 μg/kg, MTR/27) was “>” and the “Anabolic effect on boneweight, Tibial Meta., vs Ovx contr” value (50 μg/kg, MTR/27) was −1%. For the same compound, the “Anabolic effect on boneweight, Femur, vs 1,25D3” value (75 μg/kg, MTR/27) was “>”, the “Anabolic effect on boneweight, Femur, vs Ovx contr” value (75 μg/kg, MTR/27) was 8% and the “Anabolic effect on boneweight, L4, vs 1,25D3” value (75 μg/kg, MTR/27) was “>”. The “Anabolic effect on boneweight, L4, vs Ovx contr” value (75 μg/kg, MTR/27) was 13%, the “Anabolic effect on boneweight, Tibia, vs 1,25D3” value (75 μg/kg, MTR/27) was “>” and the “Anabolic effect on boneweight, Tibia, vs Ovx contr” value (75 μg/kg, MTR/27) was 7%. The “Anabolic effect on boneweight, Tibial Meta., vs 1,25D3” value (75 μg/kg, MTR/27) was “>>”, the “Anabolic effect on boneweight, Tibial Meta., vs Ovx contr” value (75 μg/kg, MTR/27) was 9% and the “Anabolic effect on boneweight, Femur, vs 1,25D3” value (100 μg/kg, MTR/23) was “>”. The “Anabolic effect on boneweight, Femur, vs Ovx contr” value (100 μg/kg, MTR/23) was 9%, the “Anabolic effect on boneweight, L4, vs 1,25D3” value (100 μg/kg, MTR/23) was “>” and the “Anabolic effect on boneweight, L4, vs Ovx contr” value (100 μg/kg, MTR/23) was 12%. The “Anabolic effect on boneweight, Tibia, vs 1,25D3” value (100 μg/kg, MTR/23) was “>”, the “Anabolic effect on boneweight, Tibia, vs Ovx contr” value (100 μg/kg, MTR/23) was 7% and the “Anabolic effect on boneweight, Tibial Meta., vs 1,25D3” value (100 μg/kg, MTR/23) was “=”. The “Anabolic effect on boneweight, Tibial Meta., vs Ovx contr” value (100 μg/kg, MTR/23) was 24% and the “bone anabolic effects (boneweight, biomechanical strength) compared to 1,25D3” value (summary of Tables 1 to 4, FIG. 1 and FIG. 2) was “comparable to or even better than 1,25D3”.
